Experimental findings from paper PMC11434868, “Synthesis and Antiproliferative Effect of 3,4,5-Trimethoxylated Chalcones on Colorectal and Prostatic Cancer Cells” (Pharmaceuticals, 2024) are described below.

Like-named read-outs stand apart in the source and are kept apart here.

The subject of test [1] is cellular microtubules in HeLa cells. The test is described as follows: Quantitative assay of the cellular microtubule content (immunoluminescence). Type of test: cell-based. The conditions noted are these: Homo sapiens, 0.5 h, 30 min incubation. Here is the method:
The assay was realized as described by Laisne et al.. Briefly, 7500 HeLa cells were seeded in 96-well microplates (#655086, Greiner bioOne, Courtaboeuf, France) in 100 µL of complete medium per well and then incubated at 37 °C in 5% CO2 for 24 h. Cells were then treated for 30 min at 37 °C with the compounds at concentrations ranging from 0.1 to 1000 µM (1 microplate per molecule, 1 concentration per column), with 0.1% DMSO used as […] (6 wells per microplate). After medium aspiration, treated cells were permeabilized for 10 min using 100 µL per well of warmed (37 °C) OPT buffer (80 mM Pipes, 1 mM EGTA, 1 mM MgCl2, 0.5% Triton X-100, and 10% glycerol, pH 6.8). Cells were fixed overnight at room temperature using 100 µL per well of 4% formaldehyde (Sigma Aldrich, #252549, Saint-Quentin-Fallavier, France) in PBS. Cells were washed 3 times in PBS, 0.1% Tween-20 (100 µL per well), then primary anti-alpha-tubulin antibody (clone α3A1), 1:5000 in PBS 2% Bovine Serum Albumin (BSA), was added for 45 min. Cells were washed twice again and secondary anti-mouse antibody coupled to HRP (1:2000 in PBS 2% BSA, #715-035-150, Jackson Immuno-Research Laboratories, Cambridgeshire, UK) was added for 45 min. Then, cells were washed again with PBS and 100 µL of ECL substrate (#170-5061, Bio-Rad Laboratories Inc., Hercules, CA, USA) was injected in each well using the FLUOstar OPTIMA Microplate Reader (BMG Lab technology, Champagny-sur-Marne, France). The luminescent signal was read immediately after ECL injection. IC50 values were calculated using GraphPad Prism software (10.3.1 version) and are presented in the text as means ± SEM of three independent experiments.

For test [2], the system named is DU145. The test is described as follows: MTT assay, antiproliferative effect on DU145. The settings on record: Homo sapiens. Type of test: cell-based. As for the experimental part: (§1) Human CRC (HCT116 and HT-29) and PCa (DU145 and PC3) cell lines were purchased from the American Type Culture Collection (ATCC—LGC Standards, Molsheim, France). All cells were grown in RPMI 1640 medium supplemented with 10% FBS, 1% L-glutamine, 100 U/mL penicillin, and 100 μg/mL streptomycin. Cultures were maintained in a humidified atmosphere containing 5% CO2 at 37 °C. Cells were seeded in 75 cm^2 culture flasks at 1.2 × 10^4 cells/cm^2 for HCT116, DU145, and PC3 cells, and 2.0 × 10^4 for HT-29 cells. Cells were grown for 24 h in culture medium prior to exposure or not to obtain the synthesized compounds. Stock solutions (10^−2 M in DMSO) of each compound were diluted in culture medium to obtain appropriate final concentrations.
(§2) • (a) MTT assay: The antiproliferative effect of all compounds was determined using MTT assay (a metabolic activity test). Briefly, cells were seeded in 96-well culture plates at 4 × 10^3 cells/well for HCT116, PC3, and DU145 cells and 6 × 10^3 cells/well for HT-29 cells (100 µL/well), and grown for 24 h in culture medium prior to exposure or not to obtain compounds 1–15 with concentrations ranging from 5 nM to 50 μM. After 24 and 48 h of treatment, MTT (5 mg/mL in PBS) was added and incubated for another 3 h. MTT was then removed from the wells before adding 100 μL/well of DMSO. The optical density was detected with a microplate reader (Multiskan FC, Thermoscientific, Bordeaux, France) at 550 nm and cell viability was expressed as a percentage of each treatment condition compared to control cells. IC50 values were calculated for all compounds from the dose–response curve. Data are expressed as the arithmetic means ± standard error of the mean (SEM) of separate experiments. All experiments were performed at least in triplicate. • (b) Trypan blue dye exclusion method: Cells were grown for 24 h then treated with compounds 10 and 13 at indicated concentrations. After 48 h of treatment, cells were trypsinized and resuspended in complete medium. Each sample was mixed with Trypan blue solution (0.14% in HBSS, Invitrogen-GIBCO, ThermoFisher, Illkirch, France). Colored (non-viable) and dye-excluding (viable) cells were counted with the LUNA-II automated cell Counter (Logos Biosystems; MC2, Aubière, France). The control was normalized to 100% including viable and dead cells. The results indicated on the histograms were expressed as the percentage of cells compared to the control. IC50 values were determined from the percentages of viable cells compared to the control.

The subject of test [3] is HeLa cells microtubules. The test is described as follows: Tubulin immunofluorescence. Type of test: cell-based. The conditions noted are these: 30 min, chalcone 8 at 1 µM or chalcone 2 at 200 µM. As for the experimental part:
Cells at a density of 20,000 cells per well were grown for 48 h on glass coverslips placed in a 24-well microplate. When cells reached 70% confluence, the medium was replaced with a fresh one supplemented with DMSO (0.005% or 0.01%) or the test compound at 1 or 200 µM. After 30 min of incubation, cells were permeabilized in warm OPT buffer (80 mmol/L Pipes, […], 0.5% Triton X-100 and 10% Glycerol, pH 6.8) and fixed for 6 min in −20 °C methanol (Carlo ERBA SAS, #414855, Val-de-Reuil, France). After washing and saturation with a specific blocking buffer (3% BSA), 10% Goat serum (Gibco Invitrogen, #16210064, Carlsbad, CA, USA) in PBS, cells were incubated for 45 min at room temperature (RT) with anti-alpha-tubulin antibody (clone α3A1 in blocking buffer). Cells were washed twice again and subsequently incubated with Alexa 488 conjugated anti-mouse antibody (1:500 in blocking buffer, #115-545-166, Jackson immune-research laboratory, Cambridgeshire, UK) and DNA was stained with Dapi which was included in mounting media (Dapi fluoromount, #0100-20, Clinisciences, France). Images were captured with a Zeiss AxioimagerM2 microscope (Zeiss microscopy, Rueil Malmaison, France) equipped with the acquisition software AxioVision (4.8 version, Marly-le-Roi, France).

The subject of test [4] is HT-29. As to the kind of experiment: MTT assay, antiproliferative effect on HT-29. The class given is cell-based, human. As for the experimental part: as §1, §2
Test [5] relates to human PCa (DU145 and PC3) cell lines. The test is described as follows: MTT assay, summary statements for PCa cells. Type of test: cell-based. As for the experimental part:
as §1, §2

The subject of test [6] is PC3. The test is described as follows: MTT assay, antiproliferative effect on PC3. Type of test: cell-based. The conditions noted are these: Homo sapiens. Here is the method:
as §1, §2
(Tetrazolium dyes change colour on reduction, which living cells bring about.)

For test [7], the system named is HCT116. The test is described as follows: MTT assay, antiproliferative effect on HCT116. The class given is cell-based. The conditions noted are these: Homo sapiens. Here is the method:
as §1, §2

Where [8] appears, read: read-out: IC50 depolymerization of cellular microtubules.
Setting [9] is: DU-145, 24 h, read-out: IC50 DU145 24 h.
Where [10] appears, read: DU-145, 48 h, read-out: IC50 DU145 48 h.
Setting [11] is: 48 h, read-out: IC50 HT-29 48 h.
The mark [12] stands for this setting: Homo sapiens, HT-29, 24 h, 24 h, read-out: IC50 HT-29 24 h.
[13] abbreviates: Homo sapiens, HT-29, 48 h, 48 h, read-out: IC50 HT-29 48 h.
Setting [14] is: PC-3, 24 h, read-out: IC50 PC3 24 h.
Setting [15] is: PC-3, 48 h, read-out: IC50 PC3 48 h.
[16] abbreviates: HCT-116, 24 h, read-out: IC50 HCT116 24 h.
Setting [17] is: HCT-116, 48 h, read-out: IC50 HCT116 48 h.

For the molecule `COc1cc(C(=O)/C=C/c2cccc(O)c2)cc(OC)c1OC` [chalcone 2, (E)-3-(3-hydroxyphenyl)-1-(3,4,5-trimethoxyphenyl)prop-2-en-1-one], the IC50 in test [1] (no unit in the picture, read-out: IC50 microtubule contents (printed in Figure 8)) is 106 ± 4.69 µM; in test [1] (setting [8]) it was 106 ± 4.7 µM; in test [2] (setting [9]), 3.47 ± 0.24 µM; in test [2] (setting [10]) it was 2.97 ± 0.15 µM; in test [4] (setting [11]), 7.34 ± 0.22 µM; in test [4] (setting [12]), 9.87 ± 0.44 µM. For the same molecule, the IC50 is 7.3 µM in test [4] (setting [13]); about 3 µM in test [5] (Homo sapiens, DU-145, DU145 and PC3, text summary, read-out: IC50 against PCa cells); 3.76 ± 0.28 µM in test [6] (setting [14]); 3.44 ± 0.11 µM in test [6] (setting [15]); 4.23 ± 0.11 µM in test [7] (setting [16]); 2.66 ± 0.1 µM in test [7] (setting [17]). Also, the “state of tubulin / microtubules by immunofluorescence” value in test [3] is reported as “tubulin is mainly in its depolymerized form”.
With `COc1ccc(/C=C/C(=O)c2cc(OC)c(OC)c(OC)c2)cc1O` [chalcone 8, (E)-3-(3-hydroxy-4-methoxyphenyl)-1-(3,4,5-trimethoxyphenyl)prop-2-en-1-one], the IC50 in test [1] (setting [8]) came to 0.289 ± 0.045 µM; in test [2] (setting [9]) it was 0.036 ± 0.002 µM; in test [2] (setting [10]), 0.031 ± 0.001 µM; in test [4] (setting [11]) it was 8.11 ± 0.5 µM; in test [4] (setting [12]), 8.03 ± 0.18 µM; in test [4] (setting [13]), 8.1 µM. Besides, the IC50 is about 0.02 µM in test [5] (DU145 and PC3, read-out: IC50 towards PCa cells); 0.017 to 0.031 µM in test [5] (Homo sapiens, DU-145, DU145 and PC3, text summary, read-out: IC50 towards PCa cells); 0.021 ± 0.001 µM in test [6] (setting [14]); 0.02 ± 0.001 µM in test [6] (setting [15]); 0.22 ± 0.01 µM in test [7] (setting [16]); 0.11 ± 0.02 µM in test [7] (setting [17]). Besides, the “state of tubulin / microtubules by immunofluorescence” value in test [3] is given as “tubulin is mainly in its depolymerized form”.

Usually IC50 stands for the concentration that inhibits the measured activity by half.
